The compounds below were run against T1, human recombinant GPR65 (Homo sapiens, UniProt Q8IYL9) (assay: Human GPR65 cAMP HTRF antagonist assay). Conditions: 1321N1-hrGPR65 cells, assay pH 7.2, cAMP HTRF; read-out: hGPR65 IC50.
T1 construct: host or cells: 1321N1 human astrocytoma cells (1321N1-hrGPR65)
T1 sequence (Q8IYL9 whole entry): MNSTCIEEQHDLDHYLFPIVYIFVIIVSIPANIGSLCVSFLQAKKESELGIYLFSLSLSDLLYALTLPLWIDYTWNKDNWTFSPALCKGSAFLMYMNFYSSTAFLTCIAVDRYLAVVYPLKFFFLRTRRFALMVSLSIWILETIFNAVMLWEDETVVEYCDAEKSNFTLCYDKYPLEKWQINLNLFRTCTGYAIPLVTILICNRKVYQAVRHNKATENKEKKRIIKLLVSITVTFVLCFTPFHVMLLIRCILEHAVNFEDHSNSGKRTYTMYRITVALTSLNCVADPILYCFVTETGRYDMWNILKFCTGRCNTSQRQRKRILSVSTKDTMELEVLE
Type: cell-based
How it was run: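 1321N1 cells stably expressing human GPR65 were preincubated 30 min at room temperature with compound in KRH pH 7.6 containing 1 mM IBMX and 200 μM EDTA. They were then acid-stimulated to pH 7.2 for 30 min, with pH 7.9 as control. cAMP was read by HTRF (665/620 ratio), and IC50 came from normalised 4-parameter logistic fits.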
For `O=C(Nc1ccc(-c2ccc(OCC(F)(F)F)nc2)cc1F)N1[C@H]2CC[C@@H]1c1n[nH]c(=O)cc1C2` [Compound 21, (6S,9R)-N-(2-fluoro-4-(6-(2,2,2-trifluoroethoxy)pyridin-3-yl)phenyl)-3-oxo-3,5,6,7,8,9-hexahydro-2H-6,9-epiminocyclohepta[c]pyridazine-10-carboxamide], the IC50 was < 500 nM.
In the case of `CN1CC2(COc3ccc(-c4cc(F)c(NC(=O)N5[C@H]6CC[C@@H]5c5c[nH]c(=O)cc5C6)cc4Cl)cn3)CC1C2` [Compound 61, (6S,9R)-N-(5-Chloro-2-fluoro-4-(6-((2-methyl-2-azabicyclo[2.1.1]hexan-4-yl)methoxy)pyridin-3-yl)phenyl)-3-oxo-3,5,6,7,8,9-hexahydro-2H-6,9-epiminocyclohepta[c]pyridine-10-carboxamide], the IC50 is reported as 500 to 5000 nM.
With `CN(CC(F)(F)F)c1ccc(-c2cc(F)c(NC(=O)N3[C@H]4CC[C@@H]3c3n[nH]c(=O)cc3C4)cc2Cl)cn1` [Compound 3, (6S,9R)-N-(5-chloro-2-fluoro-4-(6-(methyl(2,2,2-trifluoroethyl)amino)pyridin-3-yl)phenyl)-3-oxo-3,5,6,7,8,9-hexahydro-2H-6,9-epiminocyclohepta[c]pyridazine-10-carboxamide] the IC50 was < 500 nM.
In the case of `O=C(Nc1cc(Cl)c(-c2ccc(CC(F)(F)F)nc2)cc1F)N1[C@H]2CC[C@@H]1c1c[nH]c(=O)cc1C2` [Compound 40, (6S,9R)-N-(5-chloro-2-fluoro-4-(6-(2,2,2-trifluoroethyl)pyridin-3-yl)phenyl)-3-oxo-3,5,6,7,8,9-hexahydro-2H-6,9-epiminocyclohepta[c]pyridine-10-carboxamide], the IC50 is reported as < 500 nM.
`CN(C(=O)C(F)(F)F)c1ccc(-c2cc(F)c(NC(=O)N3[C@H]4CC[C@@H]3c3c[nH]c(=O)cc3C4)cc2Cl)cn1` [Compound 31, (6S,9R)-N-(5-chloro-2-fluoro-4-(6-(2,2,2-trifluoro-N-methylacetamido)pyridin-3-yl)phenyl)-3-oxo-3,5,6,7,8,9-hexahydro-2H-6,9-epiminocyclohepta[c]pyridine-10-carboxamide] showed an IC50 of 500 to 5000 nM.
With `O=C(Nc1cc(Cl)c(-c2ccc(OCC3CC3(F)F)nc2)cc1F)N1[C@H]2CC[C@@H]1c1c[nH]c(=O)cc1C2` (stereo partly drawn) [Compound 38, (6S,9R)-N-(5-chloro-4-(6-((2,2-difluorocyclopropyl)methoxy)pyridin-3-yl)-2-fluorophenyl)-3-oxo-3,5,6,7,8,9-hexahydro-2H-6,9-epiminocyclohepta[c]pyridine-10-carboxamide] the IC50 was < 500 nM.
With `O=C(Nc1cc(Cl)c(COc2cccc(OCC(F)(F)F)n2)cc1F)N1[C@H]2CC[C@@H]1c1c[nH]c(=O)cc1C2` [Compound 57, (6S,9R)-N-(5-chloro-2-fluoro-4-(((6-(2,2,2-trifluoroethoxy)pyridin-2-yl)oxy)methyl)phenyl)-3-oxo-3,5,6,7,8,9-hexahydro-2H-6,9-epiminocyclohepta[c]pyridine-10-carboxamide] the IC50 was < 500 nM.
In the case of `O=C(Nc1cc(Cl)c(Cl)cc1F)N1[C@H]2CC[C@@H]1c1ccncc1C2` [Compound 49, (5R,8S)-N-(4,5-dichloro-2-fluorophenyl)-6,7,8,9-tetrahydro-5H-5,8-epiminocyclohepta[c]pyridine-10-carboxamide], the IC50 is reported as < 500 nM.
For `O=C(Nc1cc(Cl)c(-c2cnc(OCC(F)(F)F)c(F)c2)cc1F)N1[C@H]2CC[C@@H]1c1c[nH]c(=O)cc1C2` [Compound 11, (6S,9R)-N-(5-chloro-2-fluoro-4-(5-fluoro-6-(2,2,2-trifluoroethoxy)pyridin-3-yl)phenyl)-3-oxo-3,5,6,7,8,9-hexahydro-2H-6,9-epiminocyclohepta[c]pyridine-10-carboxamide], the IC50 was < 500 nM.
`Cc1cc(NC(=O)N2[C@H]3CC[C@@H]2c2c[nH]c(=O)cc2C3)c(F)cc1-c1ccc2nsnc2c1` [Compound 17, (6S,9R)-N-(4-(benzo[c][1,2,5]thiadiazol-5-yl)-2-fluoro-5-methylphenyl)-3-oxo-3,5,6,7,8,9-hexahydro-2H-6,9-epiminocyclohepta[c]pyridine-10-carboxamide] was tested, and the IC50 was < 500 nM.
For `O=C(Nc1cc(Cl)c(COc2ccc(F)cn2)cc1F)N1[C@H]2CC[C@@H]1c1n[nH]c(=O)cc1C2` [Compound 51, (6S,9R)-N-(5-Chloro-2-fluoro-4-(((5-fluoropyridin-2-yl)oxy)methyl)phenyl)-3-oxo-3,5,6,7,8,9-hexahydro-2H-6,9-epiminocyclohepta[c]pyridazine-10-carboxamide], the IC50 was < 500 nM.
In the case of `O=C(Nc1cc(Cl)c(-c2ccc3nonc3c2)cn1)N1[C@@H]2CC[C@H]1C(F)(F)c1c2ccnc1F` [Compound 74, (5R,8S)-N-(5-(Benzo[c][1,2,5]oxadiazol-5-yl)-4-chloropyridin-2-yl)-1,9,9-trifluoro-6,7,8,9-tetrahydro-5H-5,8-epiminocyclohepta[c]pyridine-10-carboxamide], the IC50 is reported as < 500 nM.
For `Cc1nc2cc(-c3cc(F)c(NC(=O)N4[C@H]5CC[C@@H]4c4c[nH]c(=O)cc4C5)cc3Cl)ccc2n1C` [Compound 19, (6S,9R)-N-(5-chloro-4-(1,2-dimethyl-1H-benzo[d]imidazol-5-yl)-2-fluorophenyl)-3-oxo-3,5,6,7,8,9-hexahydro-2H-6,9-epiminocyclohepta[c]pyridine-10-carboxamide], the IC50 was 500 to 5000 nM.
`O=C(Nc1cc(Cl)c(-c2ccc3nonc3c2)cn1)N1[C@@H]2CC[C@H]1c1ccnc(F)c1[C@H]2F` [Compound 75, (5S,8R,9R)-N-(5-(Benzo[c][1,2,5]oxadiazol-5-yl)-4-chloropyridin-2-yl)-1,9-difluoro-6,7,8,9-tetrahydro-5H-5,8-epiminocyclohepta[c]pyridine-10-carboxamide] was tested, and the IC50 was < 500 nM.
Compound `O=C(NC12CC(c3ccc(OCC(F)(F)F)nc3)(C1)C2)N1[C@H]2CC[C@@H]1c1n[nH]c(=O)cc1C2` [Compound 7, (6S,9R)-3-Oxo-N-(3-(6-(2,2,2-trifluoroethoxy)pyridin-3-yl)bicyclo[1.1.1]pentan-1-yl)-3,5,6,7,8,9-hexahydro-2H-6,9-epiminocyclohepta[c]pyridazine-10-carboxamide] has an IC50 of 500 to 5000 nM.
In the case of `O=C(Nc1cc(Cl)c(-c2ccc(OCC3CC3(F)F)nc2)cc1F)N1[C@H]2CC[C@@H]1c1ccnc(F)c1C2` (stereo partly drawn) [Compound 14, (5R,8S)-N-(5-chloro-4-(6-((2,2-difluorocyclopropyl)methoxy)pyridin-3-yl)-2-fluorophenyl)-1-fluoro-6,7,8,9-tetrahydro-5H-5,8-epiminocyclohepta[c]pyridine-10-carboxamide], the IC50 is reported as < 500 nM.
With `COCCO[C@H]1C[C@@H](Oc2ccc(-c3cc(F)c(NC(=O)N4[C@H]5CC[C@@H]4c4c[nH]c(=O)cc4C5)cc3Cl)cn2)C1` [Compound 23, (6S,9R)-N-(5-chloro-2-fluoro-4-(6-((1s,3S)-3-(2-methoxyethoxy)cyclobutoxy)pyridin-3-yl)phenyl)-3-oxo-3,5,6,7,8,9-hexahydro-2H-6,9-epiminocyclohepta[c]pyridine-10-carboxamide] the IC50 was < 500 nM.
For `O=C(Nc1cc(Cl)c(COc2ccc(OC3CCCC3)cn2)cc1F)N1[C@H]2CC[C@@H]1c1c[nH]c(=O)cc1C2` [Compound 58, (6S,9R)-N-(5-chloro-4-(((5-(cyclopentyloxy)pyridin-2-yl)oxy)methyl)-2-fluorophenyl)-3-oxo-3,5,6,7,8,9-hexahydro-2H-6,9-epiminocyclohepta[c]pyridine-10-carboxamide], the IC50 was < 500 nM.

Reference: patent US20260285863A1, “COMPOUNDS CAPABLE OF MODULATING GPR65” (Pathios Therapeutics Limited, priority 2023, published 2026)
